This is an account of results in article PMC12175907 (Science Advances, 2025).

The subject of one data set is DIO GIPR KO mice. The data set can be described thus: chronic treatment, food intake and body weight, DIO GIPR KO mice. The note with it: inferred from GIPR KO DIO mice. Format: in vivo, mouse. The source says:
DIO adult male C57BL/6 mice (Taconic) C57BL/6 (n = 23, weighing ~43 g at arrival), GLP-1R KO (germline knockout line: 11549, n = 24, weighing ~38 g at arrival), and GIPR KO mice (germline knockout line: 2886, n = 24, weighing ~35 g at arrival) were used. Upon arrival, mice were individually housed and continued to be fed ad libitum on high-fat/high-sugar diet (60% fat diet, 12492, Research Diets).
(§1) GIPFA-085 (GIP-085), tirzepatide, and GLP-140 were designed and produced by Eli Lilly and Company. GIP-085, GLP-140, and semaglutide (Cayman Chemical) were dissolved in 40 mM tris-HCl buffer (pH 8) and 0.02% Tween 80. For the study in mice, all drugs were injected subcutaneously at a volume of 5 ml/kg of body weight. In rats, all drugs were injected intraperitoneally, at a volume of 1 ml/kg of body weight, except when noted. In shrews, all drugs were injected intraperitoneally at a volume of 10 ml/kg of body weight.
C57BL/6 wild-type (n = 23), GLP-1R KO (n = 24), and GIPR KO mice (n = 24) received daily subcutaneous administration of GIP-085 (300 nmol/kg), semaglutide (3 nmol/kg), GIP-085/semaglutide combo, or vehicle for 16 days. Food intake and body weight were manually measured daily. […] Body composition of mice was determined using quantitative nuclear magnetic resonance analysis (ECHO MRI, 3-1 Composition Analyzer; Echo Medical Systems). […]

The test system of data set [1] is shrews. The data set can be described thus: emesis, semaglutide, GIP-085 and combo, shrews. Format: in vivo, Suncus murinus. The following applies: semaglutide 500 nmol/kg ip; 120 min; n = 10. The source says:
(§2) Adult male shrews (S. murinus) weighing ~50 to 80 g (n = 84 total) were bred and maintained in the De Jonghe Lab (University of Pennsylvania). These animals were offspring from a colony previously maintained at the University of Pittsburgh Cancer Institute (C. Horn); a Taiwanese strain was derived from stock originally supplied by the Chinese University of Hong Kong. Shrews were singly housed in plastic cages (37.3 cm by 23.4 cm by 14 cm, Innovive) under a 12-hour/12-hour light/dark cycle in a temperature-controlled and humidity-controlled environment. Animal were fed ad libitum with a mixture of feline (75%, Laboratory Feline Diet 5003, Lab Diet) and mink food (25%, High Density Ferret Diet 5LI4, Lab Diet) and had ad libitum access to tap water except where noted.
We then evaluated the emetogenic actions of semaglutide (500 nmol/kg), GIP-085 (300 nmol/kg), GIP-085/semaglutide, or vehicle in a different cohort of shrews (n = 10). The animals were habituated to the experimental conditions as described above, injected intraperitoneally with semaglutide ([…]), GIP-085 (300 nmol/kg), GIP-085/semaglutide, or vehicle and then video-recorded (Vixia HF-R62, Canon) for 120 min. After 120 min, the animals were returned to their cages. Treatments were separated by 7 days. Emesis parameters were quantified as described above.

In the next data set the test system is GLP-1R KO DIO mice. The data set can be described thus: body composition (ECHO MRI), GLP-1R KO DIO mice. The note with it: n=6 per group. It counts as in vivo, mouse. As to the method:
C57BL/6 wild-type (n = 23), GLP-1R KO (n = 24), and GIPR KO mice (n = 24) received daily subcutaneous administration of GIP-085 (300 nmol/kg), semaglutide (3 nmol/kg), GIP-085/semaglutide combo, or vehicle for 16 days. Food intake and body weight were manually measured daily. The average body weight at the start of the experiment was 43.7 ± 0.4 g for the wild-type group, 39.0 ± 0.6 g for the GLP-1R KO group, and 36.5 ± 0.4 g for the GIPR KO group. Body composition of mice was determined using quantitative nuclear magnetic resonance analysis (ECHO MRI, 3-1 Composition Analyzer; Echo Medical Systems). At the end of the experiment, the animals were euthanized by CO2.

The test system of the next data set is rats. As to the kind of experiment: food and kaolin consumption and body weight in rats (semaglutide, tirzepatide). It counts as in vivo, Sprague-Dawley rat.
Description: Adult male Sprague-Dawley rats (Charles River) weighing ~250 to 270 g (n = 45) at arrival were housed under a 12-hour/12-hour light/dark cycle in a temperature-controlled and humidity-controlled vivarium. Rats were individually housed in hanging wire-bottom cage with ad libitum access to chow diet (Purina Lab Diet 5001) or, when noted, to high-fat/high-sugar diet (60% fat diet, 12492, Research Diets) and tap water and had ad libitum access to kaolin pellets (Research Diets, K50001). Rats were exposed to kaolin for at least 5 days prior to measuring kaolin consumption in pica testing. Kaolin intake and food consumption were measured simultaneously as the presence of kaolin in the cage, and its subsequent ingestion, has usually negligible effects on the hypophagic and body weight–lowering effects of the treatments.
as §1
In two separate cohorts of rats (n = 10 per group, body weight ~ 460 ± 9 g), food consumption, kaolin intake, and body weight were measured after an intraperitoneal administration of vehicle, semaglutide (10 and 100 nmol/kg), or tirzepatide (10 and 100 nmol/kg), respectively. Food and kaolin intake were measured at 3, 6, 24, and 48 hours postinjection, and body weight was measured at 0, 24, and 48 hours. For each drug, a within-subject paradigm was used, with each round of injections separated by 7 days.

Data set [2] has as its system shrews. As to the kind of experiment: food intake and body weight, semaglutide dose-response, shrews. It counts as in vivo, Suncus murinus. The following applies: 10, 50, 100 and 500 nmol/kg ip, n = 8 per group (legend).
Description: as §2
We evaluated the effects on food intake and body weight of different doses of semaglutide. Food was removed 2 hours prior to dark onset. Shortly before dark onset, shrews (n = 9, ~59 ± 2 g) received intraperitoneal injection of semaglutide (10, 50, 100, and 500 nmol/kg) or vehicle. Shrews had ad libitum access to powdered food through a circular (3 cm in diameter) hole in the cage. Food intake was evaluated using our custom-made “feedometers,” consisting of a standard plexiglass rodent housing cage (29 cm by 19 cm by 12.7 cm) with mounted food hoppers resting on a plexiglass cup (to account for spillage). Food intake was manually measured at 6, 24, 48, and 72 hours postinjection. Body weight was taken at 0, 24, 48, and 72 hours. Treatments occurred in a within-subject, counterbalanced design and were 7 days apart.

Data set [3] concerns shrews. The data set can be described thus: food intake and body weight, semaglutide, GIP-085 and combo, shrews. Format: in vivo, Suncus murinus. The following applies: semaglutide alone, 500 nmol/kg ip; n = 8.
Description: as §2
First, we compared the effects of semaglutide (500 nmol/kg), GIP-085 (300 nmol/kg), GIP-085/semaglutide, or vehicle on food intake and body weight in the same animals (n = 8, ~54 ± 2 g) using in a within-subject, counterbalanced design. This experiment was conducted as described above. Each treatment was 7 days apart.

The mark [4] stands for this setting: 100 nmol/kg ip, n = 10 to 20 per group.
The mark [5] stands for this setting: 10 and 100 nmol/kg ip, n = 10 per group, vs vehicle.

For semaglutide, the “cross-reactivity at the GIPR” value in the data set with DIO GIPR KO mice is given as “lack of cross-reactivity”. For the same substance, the “shrews that experienced emesis” value in the data set with shrews [1] is on record as 60%. Moreover, the “total fat mass at the end of the experiment” value in the data set on GLP-1R KO DIO mice (16 days daily sc, GIP-085 300 nmol/kg, semaglutide 3 nmol/kg, mean ± SEM, Veh: 17.3±0.8g) was found to be 15.5 ± 0.9 g. For the same substance, the “total lean mass at the end of the experiment” value in the data set with GLP-1R KO DIO mice (16 days daily sc, GIP-085 300 nmol/kg, semaglutide 3 nmol/kg, mean ± SEM, Veh: 24.1±0.6g) was 23.9 ± 0.7 g. Moreover, the body composition changes entry with GLP-1R KO DIO mice (semaglutide 3 nmol/kg and dual semaglutide/GIP-085, 16 days) was “No changes”. Further, the kaolin intake entry with rats (100 nmol/kg ip, n = 10 per group, vs vehicle) is listed as “causes significant malaise (i.e., kaolin intake)”. In the data set on rats (setting [4]), the “hypophagic responses, semaglutide vs tirzepatide” value is on record as “comparable hypophagic responses” and the “kaolin consumption, semaglutide vs tirzepatide” value is given as “significantly higher than that caused by tirzepatide”. In addition, the “kaolin consumption, semaglutide vs tirzepatide” value in the data set with rats (100 nmol/kg ip, n = 10 to 20 per group, listed as Semaglutide) is listed as “induces higher kaolin consumption than tirzepatide treatment”. Further, in the data set on rats (setting [5]), the body weight result was “causes body weight loss in a dose-dependent manner” and the food intake result is “dose-dependently suppresses food intake”. In addition, in the data set on shrews [2], the body weight loss result is given as “significant body weight loss up to 72 hours after the highest dose tested” and the “food intake (anorexia)” value is “causes anorexia in a dose-dependent manner”. Also, the body weight loss result in the data set with shrews [2] (listed as Semaglutide) was “dose-dependently induces body weight loss”. In the data set with shrews [3], the body weight result is “body weight loss” and the food intake result is reported as “induced anorexia”.
